Columns and labels:
[1] = test system: Typhlodromus pyri; assay: LR50; higher = less toxic; conditions: not reported; mortality
[2] = test system: Aphidius rhopalosiphi; assay: LR50; higher = less toxic; conditions: not reported; mortality
[3] = test system: Rattus norvegicus
[4] = test system: Colinus virginianus; conditions: acute; oral; mortality
[5] = test system: Canidae; conditions: oral, Dog Other
[6] = test system: Apis mellifera; conditions: acute, mortality
[7] = test system: Oncorhynchus mykiss; conditions: chronic/long-term; duration: 21 days; growth
[8] = test system: Bibionidae; conditions: chronic/long-term; duration: 28 days; development
[9] = test system: Coturnix japonica
[10] = test system: Folsomia candida; conditions: chronic/long-term; duration: 28 days
[11] = test system: Daphnia magna; conditions: chronic/long-term; duration: 21 days; reproduction
[12] = test system: Hypoaspis aculeifer; conditions: chronic/long-term; duration: 14 days
[13] = test system: Tagia sp.

Which LR50 [1] does the source give for `CC(C)c1ccc(NC(=O)N(C)C)cc1` [Isoproturon] here?
The LR50 was greater than 2500 g/ha.

What about the LR50 [2] of the same compound?
Its LR50 is greater than 2500 g/ha.

What about the LD50 ([3]; acute, mortality) of the same compound?
The LD50 was 1830 mg/kg-day.

And the NOEC ([3]; chronic)?
The NOEC was 10 mg/kg-day.

What about the NOAEL ([3]; chronic, duration: 2 years, histopathology: neoplastic) of the same compound?
Its NOAEL is 3.1 mg/kg-day.

What about the LD50 [4] of the same compound?
Its LD50 is 1400 mg/kg-day.

And the NOAEL ([5]; short-term, histopathology: nonneoplastic)?
The NOAEL was 3.2 mg/kg-day.

And the NOAEL ([5]; subchronic, duration: 90 days, hematological)?
Its NOAEL is 10 mg/kg-day.

What about the LD50 ([6]; dermal) of the same compound?
Its LD50 is greater than 100 µg/piece.

And the LD50 ([6]; oral, unspecified)?
The LD50 was greater than 99.2 µg/piece.

And the NOEC [7]?
The NOEC was 1 mg/L.

What about the NOEC [8] of the same compound?
Its NOEC is 0.344 mg/L.

What about the LC50 ([9]; acute, oral, diet, mortality) of the same compound?
Its LC50 is greater than 5000 mg/kg.

And the NOAEL ([9]; reproduction developmental, reproduction)?
The NOAEL was 12 mg/kg-day.

What about the NOEC [10] of the same compound?
The NOEC was 24.3 mg/kg.

And the NOEC [11]?
The NOEC was 0.12 mg/L.

And the NOEC [12]?
Its NOEC is greater than 459 mg/kg.

And the LC50 ([13]; acute, duration: 14 days, mortality)?
Its LC50 is greater than 500 mg/kg.

What about the NOEC ([13]; chronic/long-term, duration: 8 weeks) of the same compound?
Its NOEC is 14 mg/kg.
